# Laboratory results as given in publication PMC7279002, “Novel 3′-Substituted-1′,2′,4′-Oxadiazole Derivatives of 18βH-Glycyrrhetinic Acid and Their O-Acylated Amidoximes: Synthesis and Evaluation of Antitumor and Anti-Inflammatory Potential In Vitro and In Vivo” (International Journal of Molecular Sciences, 2020).
# Tests used:
# [1] = test system: activated caspases in HeLa cells; assay: Metacaspases activity assay (FITC-VAD-FMK); assay type: cell-based, human; settings: dose-dependent
# Method: The activity of caspases was determined by using a CaspACE^TM FITC-VAD-FMK (Promega, Madison, WI, USA). Briefly, HeLa cells were cultured in 24-well plates for 24 h under standard conditions and treated by 5f at 7 or 10 µM for 48 h. The cells were collected and incubated with fluorophore-conjugated pancaspase inhibitor FITC-VAD-FMK in darkness for 30 min at room temperature. After incubation, the cells were centrifuged, washed twice with PBS, and analyzed by flow cytometry. For each sample, 10,000 events were acquired.
# B16 melanoma = assay: Metastatic model of murine B16 melanoma in C57Bl/6 mice; assay type: in vivo; settings: five injections; for decrease of the numbers of surface metastases in the lungs: day 14
# Method: To generate a metastatic model of tumor progression, 10^5 B16 melanoma cells suspended in 0.2 mL of saline buffer were inoculated into the lateral tail vein of C57Bl/6 mice. On day 4 after tumor transplantation, mice were divided into three groups (n = 9 per group): (1) mice without treatment (control); (2) mice who received intraperitoneal (i.p.) injections of 10% Tween-80 (vehicle); and (3) mice who received i.p. injections of 5f in 10% Tween-80 at a dose of 50 mg/kg. The treatment was carried out three times a week. The total number of injections was five. Mice were sacrificed on day 14 after B16 melanoma transplantation and the lungs were collected for calculation of surface metastases.
# To study the antimetastatic action of 5f, evaluation of surface metastases in lungs of B16 melanoma bearing mice was carried out. Surface metastases in the lungs were counted using a binocular microscope. Inhibition of metastases development was assessed using the metastasis inhibition index (MII), calculated according to the formula: MII=(∑n(N¯control−Nn)×100% /N¯control)/n, where N is the number of surface metastases and n is the number of mice in the analyzed group. The MII of the control group was taken as 0% and the MII reflecting the absence of metastases was taken as 100%.
# [2] = test system: human lung adenocarcinoma A549; assay: MTT cytotoxicity assay, 48 h; assay type: cell-based; settings: Homo sapiens, A549; MTT, 48 h
# Outline: (§1)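 Cells were seeded at 10^4 per well, grown 24 h, then exposed to derivatives (0.5–50 µM, DMSO vehicle) for 48 h at 37 °C, 5% CO2 in DMEM/10% FBS. Viability was read by MTT (0.5 mg/mL final, 2 h; A570/620). IC50 was the concentration reducing A570 to 50% of control, from dose–response curves.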
# murine melanoma B16 = assay: MTT cytotoxicity assay, 48 h; assay type: cell-based
# Outline: as §1
# [3] = test system: human duodenal carcinoma HuTu-80; assay: MTT cytotoxicity assay, 48 h; assay type: cell-based
# Outline: as §1
# [4] = test system: human cervical carcinoma HeLa; assay: MTT cytotoxicity assay, 48 h; assay type: cell-based
# Outline: as §1
# [5] = test system: human cervical carcinoma KB-3-1; assay: MTT cytotoxicity assay, 48 h; assay type: cell-based
# Outline: as §1
# [6] = test system: nontransformed human fibroblasts hFF3; assay: MTT cytotoxicity assay, 48 h; assay type: cell-based; settings: Homo sapiens, HFF-3, read-out: IC50, µM Fibroblast hFF3
# Outline: as §1
# [7] = test system: caspase-3/7 in HeLa cells; assay: Executioner caspases-3/7 activity assay (Caspase-Glo 3/7); assay type: cell-based, human; settings: 48 h
# Method: The activity of caspase-3/7 in HeLa cells was evaluated using a Caspase-Glo® 3/7 assay kit (Promega, Madison, WI, USA) according to manufacturer’s instructions. […] After incubation, 100 µL of Caspase-Glo® 3/7 Reagent was added to each wells, the plate was carefully shaken on a plate mixer, then incubated for 30 min in darkness at room temperature. The luminescence was measured using a luminometer (CLARIOstar plate reader (BMG Labtech, Ortenberg, Germany)).
structure (smiles),measurement,setting,value
"CC1(C)C2CC[C@]3(C)C(C(=O)C=C4[C@@H]5C[C@@](C)(c6nc(-c7ccccn7)no6)CC[C@]5(C)CC[C@]43C)[C@@]2(C)CC[C@@H]1O (stereo partly drawn) [Compound 5f, 30-nor-3β-hydroxy-11-oxo-20-(3′-(pyridin-2′′-yl)-1′,2′,4′-oxadiazol-5′-yl)-18βH-olean-12-en]",metacaspase activation (FITC-VAD-FMK fluorescence),[1],significantly increased the intensity of FITC fluorescence
same,mice with kidney metastases,B16 melanoma; 50 mg/kg i.p.,2/9
same,mice with liver metastases,B16 melanoma; 50 mg/kg i.p.,1/9
same,decrease of the numbers of surface metastases in the lungs,"B16 melanoma; 50 mg/kg i.p., compared to untreated control animals",4.5 times
same,decrease of the numbers of surface metastases in the lungs,"B16 melanoma; 50 mg/kg i.p., compared to vehicle-treated animals",3.4 times
same,metastasis inhibition index (MII),"B16 melanoma; 50 mg/kg i.p., relative to untreated control",77.7 ± 4.7%
same,suppression of metastasis growth compared to the vehicle-treated control,B16 melanoma; 50 mg/kg,70%
same,IC50,[2],> 50 µM
same,Selectivity index: B16,murine melanoma B16; IC50 in hFF3 / IC50 in B16,> 5.3
same,IC50,"murine melanoma B16; Mus musculus, MTT, 48 h",9.4 ± 0.4 µM
same,IC50,"[3]; Homo sapiens, HuTu80, MTT, 48 h, read-out: IC50, µM Duodenum HuTu-80",3.8 ± 0.3 µM
same,Selectivity index: HuTu-80,[3]; IC50 in hFF3 / IC50 in HuTu-80,> 13.2
same,IC50,"[4]; Homo sapiens, HeLa, MTT, 48 h, read-out: IC50, µM Cervix HeLa",3.6 ± 0.5 µM
same,Selectivity index: HeLa,[4]; IC50 in hFF3 / IC50 in HeLa,> 13.9
same,IC50,"[5]; Homo sapiens, KB 3-1, MTT, 48 h, read-out: IC50, µM Cervix KB-3-1",4.7 ± 0.1 µM
same,Selectivity index: KB-3-1,[5]; IC50 in hFF3 / IC50 in KB-3-1,> 10.6
same,IC50,[6],> 50 µM
same,increase of caspase-3/7 activity in comparison with control,[7]; 5 µM,1.3 times
same,increase of caspase-3/7 activity in comparison with control,[7]; 7 µM,1.9 times
